Measured values reported in publication PMC8695447, “Novel Small Molecules Capable of Blocking mtRAS-Signaling Pathway” (Frontiers in Oncology, 2021).

Key:
[1] = system: Ba/F3-parental cells; experiment: Anti-proliferation assay (CellTiter Glo) on Ba/F3-parental; assay type: cell-based; conditions: Mus musculus, BaF3; 72 h treatment; with 10 ng/ml IL-3; average with SD (n = 3, duplicate)
Experimental: (§1) Ba/F3-parental, OCI-AML3, U397 cells were purchased from DSMZ. MDA-MB-231, HCT-116, AsPC-1, H358, HT-29, SW480, and DU-145 cells were obtained from KCLB. MDA-MB-468 cells were obtained from ATCC. All cells were maintained in RPMI with 10% FBS and antibiotics. Cells were grown in a humidified 5% CO2 incubator at 37°C. Ba/F3-parental cells were grown in the presence of 10 ng/ml IL-3. NRAS-G12D or NRAS-G12V transformed Ba/F3 cell lines (Ba/F3-NRAS-G12D, and Ba/F3-NRAS-G12V, respectively) were cultured without IL-3, which were established by the procedure described as previously ([30]).
(§2) Approximately 3.0 × 10^3 cells/well were seeded in a 96-well cell culture plate. After stabilization, 1/3 serially diluted compound in DMSO was treated to the cell. […] All GI50 values were obtained in duplicate with three independent assays and averages with standard deviation are presented.

[2] = system: AsPC-1 (KRAS-G12D); experiment: Anti-proliferation assay on AsPC-1; assay type: cell-based; conditions: Homo sapiens, ASPC1; 72 h treatment; average with SD (n = 3, duplicate)
Experimental: as §1, §2

[3] = system: SW480 (KRAS-G12V); experiment: Anti-proliferation assay on SW480; assay type: cell-based; conditions: Homo sapiens, SW480; 72 h treatment; average with SD (n = 3, duplicate)
Experimental: as §1, §2

[4] = system: MDA-MB-231 (KRAS-G13D); experiment: Anti-proliferation assay on MDA-MB-231; assay type: cell-based; conditions: Homo sapiens, MDA-MB-231; 72 h treatment; average with SD (n = 3, duplicate)
Experimental: as §1, §2

[5] = system: OCI-AML3 (NRAS-Q61L); experiment: Anti-proliferation assay on OCI-AML3; assay type: cell-based, human; conditions: Homo sapiens, OCI-AML-3; 72 h treatment; average with SD (n = 3, duplicate)
Experimental: as §1, §2

[6] = system: cleaved PARP in cancer cells harboring mtRAS; experiment: Western blot, cleaved PARP in cancer cells harboring mtRAS; assay type: cell-based; conditions: 1 μM, 24 h
Experimental: Approximately 1 × 10^6 cells per well were seeded in a 6-well cell culture plate. After cell adhesion, each compounds were treated for 2 h with indicated concentration and conducted brief washing twice by ice-cold PBS. Cells were lysed by NP40 buffer (50 mM Tris–HCl pH 7.4, 1% NP40, 2 mM EDTA, 150 mM NaCl) in the presence of protease inhibitor cocktail (Roche, #11873580001) and phosphatase inhibitor cocktail (Roche, #04906837001). Each sample was loaded with same amount of total protein and separated by SDS-PAGE gel. After transferred to nitrocellulose membrane, blocking with 5% skim milk (in TBS/T) was followed. […] Chemiluminescence signals were detected by ImageQuant™ LAS 4000 (GE Healthcare).
Figure 4 The effects of (A) SIJ1795 and (B) SIJ1772 on apoptosis induction in cancer cells harboring mtRAS. […] (C) Apoptotic cell population (annexin V-positive) was determined by flow cytometry analysis (n = 3). […] Statistical significance was determined using a one-way ANOVA analysis (*p < 0.05, **p < 0.01, ***p < 0.001).

[7] = system: cancer cells with mtRAS including H358, AsPC-1, DU-145, SW480, and MDA-MB-231; experiment: Invasion assay (Boyden chamber assay); assay type: cell-based; conditions: 0.01 µM, 48 h
Experimental: For invasion assay, Boyden chamber assay carried out. Transwell insert was precoated with matrigel (Corning, #354248). Cells were seeded in the transwell chamber insert (8 μm pore size) at a density of 5.0 × 10^5 cells/well after serum starvation for overnight. The cells were incubated with 0.01 μM concentration of each compounds of for 48 h at 37°C. The non-invaded cells were eliminated. Crystal violet solution was used to staining the invaded cells. Cells were observed and photographed with 100× magnification. Stained cells were automatically counted and quantified (n = 3).
Figure 6 The effects of SIJ1795 and SIJ1772 on migration and invasion activities of cancer cells harboring mtRAS. (A) Scratch assay result for cell migration ability determination. Each cell monolayers were scratched and incubated with test compounds at 0.01 μM. After 8 h (MDA-MB-231) or 24 h (DU-145, SW480, HCT-116) or 48 h (AsPC-1) or 72 h (HT-29), cells were stained with crystal violet. Migrated areas were photographed with 40× magnification. Migrated area was determined by ImageJ (n = 3). (B) Boyden chamber assay result for cell invasion ability determination. […] Stained cells were counted by ImageJ (n = 3). Statistical significance was determined using a one-way ANOVA analysis (*p < 0.05, **p < 0.01, ***p < 0.001, ****p < 0.0001).

[8] = system: cancer cells harboring mtRAS; experiment: Colony formation assay (2D clonogenic assay); assay type: cell-based; conditions: 0.1 μM, 14 days
Experimental: Colony formation assay was conducted for 2D clonogenic assay. Approximately 1 × 10^3 cells/well were seeded in 6-well plate. After cellular attachment, indicated concentrations of compounds were treated for 14 days at 37°C. Colonies were stained by crystal violet solution for 30 min. The total area of each well was observed without magnification, and the number of colonies of each well were accessed using ImageJ software (n = 3).
Figure 7 (A–F) Colony formation assay results evaluating the effects of SIJ1795 and SIJ1772 on clonogenic abilities of on cancer cells harboring mtRAS. Cells were incubated with indicated compounds (0.01 µM or 0.1 µM) for 14 days. After staining with crystal violet, colonies were photographed without magnification. (G–L) Number of colonies (% of control) upon treatment with indicated compounds at 0.1 µM concentration were determined by ImageJ (n = 3, respectively). Statistical significance was calculated by using a one-way ANOVA analysis (**p < 0.01, ***p < 0.001, ****p < 0.0001).

Row | GI50 [2] [µM] | GI50 [3] [µM] | GI50 [4] [µM] | GI50 [5] [µM] | Structure (SMILES) | GI50 [1] [µM] | level of cleaved PARP in cancer cells harboring mtRAS [6] | reduction in invasion capabilities [7] | colony formation [8]
1 | 0.17 ± 0.032 | 0.447 ± 0.173 | 0.058 ± 0.001 | 0.065 ± 0.029 | Cc1ccc(NC(=O)c2cccc(C(F)(F)F)c2)cc1N1Cc2cnc(Nc3cnn(C4CCN(S(C)(=O)=O)CC4)c3)nc2N(C)C1=O [SIJ1772, N-(4-Methyl-3-(1-methyl-7-((1-(1-(methylsulfonyl)piperidin-4-yl)-1H-pyrazol-4-yl)amino)-2-oxo-1,4-dihydropyrimido[4,5-d]pyrimidin-3(2H)-yl)phenyl)-3-(trifluoromethyl)benzamide] | 1.92 ± 0.086 | notably increased | over 50% | suppressed
2 | 0.144 ± 0.023 | 0.245 ± 0.012 | 0.053 ± 0.008 | 0.052 ± 0.052 | CCN1CCN(c2cccc(Nc3ncc4c(n3)N(C)C(=O)N(c3cc(NC(=O)c5cccc(C(F)(F)F)c5)ccc3C)C4)c2)CC1 [SIJ1795, N-(3-(7-((3-(4-Ethylpiperazin-1-yl)phenyl)amino)-1-methyl-2-oxo-1,4-dihydropyrimido[4,5-d]pyrimidin-3(2H)-yl)-4-methylphenyl)-3-(trifluoromethyl)benzamide] | 2.02 ± 0.419 | notably increased | over 50% | suppressed
